The values below come from patent publication US20120101110A1, “Diaza-spiro[5.5]undecanes” (priority 2010, published 2012).

In test [1] the target is T1, human orexin 1 receptors (Homo sapiens, UniProt O43613).
T1 sequence (O43613 1-425): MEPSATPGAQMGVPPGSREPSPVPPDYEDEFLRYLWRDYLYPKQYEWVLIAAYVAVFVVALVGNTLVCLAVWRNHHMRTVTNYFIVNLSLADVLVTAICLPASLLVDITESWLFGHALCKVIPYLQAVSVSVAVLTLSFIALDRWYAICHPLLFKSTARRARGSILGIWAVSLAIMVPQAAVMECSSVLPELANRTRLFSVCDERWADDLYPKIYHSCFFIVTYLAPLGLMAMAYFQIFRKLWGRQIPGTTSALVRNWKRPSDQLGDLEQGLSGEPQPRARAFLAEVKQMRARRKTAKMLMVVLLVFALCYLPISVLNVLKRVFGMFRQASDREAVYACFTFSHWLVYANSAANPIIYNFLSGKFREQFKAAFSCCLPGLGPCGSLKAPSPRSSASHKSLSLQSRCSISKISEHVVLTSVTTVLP
Nature of the test: Radioligand binding assay ([3H]-SB649868 competition), hOx1R. The note with it: competition with about 1 nM [3H]-SB649868; CHO or HEK cell membranes expressing human orexin 1 receptor. As to the method:
(§1) The cell pellet was either stored at −80° C. or used directly. Before the experiments, cell membranes were re-suspended in binding assay buffer (10 mM HEPES, 0.5% (w/v) bovine serum albumin, pH 7.5) by homogenisation with a Polytron homogeniser at 50 Hz for 20 s. Cell membranes were also used as made available by commercial providers.
(§2) Bound radioactivity was measured, and data were analysed with the program XLFIT or Graphpad Prism. Protein concentration was determined according to the Bradford/BioRad Protein Assay Kit.
In competition experiments, cell homogenates (150 μl) were incubated in assay buffer (10 mM HEPES, pH 7.5, 0.5% (w/v) bovine serum albumin, 5 mM MgCl2, 1 mMCaCl2, and tween 0.05%) for 1 h at room temperature with about 1 nM of the radioligand [^3H]-SB649868, 66 Ci/mmole, 50 μl), and with various concentrations of compounds of the invention (50 μl) in triplicates; non-specific binding was determined in the presence of almorexant (10 μM). Reactions were terminated by vacuum filtration, 3 washes of ice cold wash buffer (Tris-HCl pH 7.4/10 mM, with NaCl 154 mM). Competition data is expressed in Table 2 as Kd [μM].

Test [2] concerns the target T2, human orexin 2 receptors (Homo sapiens, UniProt O43614).
T2 sequence (O43614 1-444): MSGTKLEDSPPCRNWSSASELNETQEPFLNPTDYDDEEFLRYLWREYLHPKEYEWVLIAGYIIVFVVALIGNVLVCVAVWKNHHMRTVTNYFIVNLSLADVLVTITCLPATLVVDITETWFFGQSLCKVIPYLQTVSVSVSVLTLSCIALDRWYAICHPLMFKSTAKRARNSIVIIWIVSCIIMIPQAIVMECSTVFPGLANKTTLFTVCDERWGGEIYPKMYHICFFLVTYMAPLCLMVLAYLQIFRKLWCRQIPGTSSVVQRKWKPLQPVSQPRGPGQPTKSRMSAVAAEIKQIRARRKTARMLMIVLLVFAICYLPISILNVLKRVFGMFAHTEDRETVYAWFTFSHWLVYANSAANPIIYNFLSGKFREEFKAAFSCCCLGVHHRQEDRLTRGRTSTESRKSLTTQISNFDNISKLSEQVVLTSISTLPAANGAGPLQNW
In words: Radioligand binding assay ([3H]-SB649868 competition), hOx2R. As to conditions: competition with about 1 nM [3H]-SB649868; CHO or HEK cell membranes expressing human orexin 2 receptor; read-out: binding hOx2R Kd. As to the method: as §1, §2
In competition experiments, cell homogenates (150 μl) were incubated in assay buffer (10 mM HEPES, pH 7.5, 0.5% (w/v) bovine serum albumin, 5 mM MgCl2, 1 mMCaCl2, and tween 0.05%) for 1 h at room temperature with about 1 nM of the radioligand [^3H]-SB649868, 66 Ci/mmole, 50 μl), and with various concentrations of compounds of the invention (50 μl) in triplicates; non-specific binding was determined in the presence of almorexant (10 μM).

The target in test [3] is T2, human orexin 2 receptors. Nature of the test: Calcium accumulation in cells (FLIPR), hOx2R. It is filed as cell-based. The note with it: cells expressing human orexin 2 receptor; inhibition of orexin A-induced calcium accumulation; Cheng and Prusoff correction.
For test [4], the target named is T1, human orexin 1 receptors. Nature of the test: Calcium accumulation in cells (FLIPR), hOx1R. The note with it: for inhibition at 10 µM: read-out: FLIPR hOx1R % inhibition value.

As for `Cc1cc(C)nc(N2CCC3(CCCN(Cc4ccccc4-c4nc(C)no4)C3=O)CC2)n1` [Example 1, 9-(4,6-dimethylpyrimidin-2-yl)-2-(2-(3-methyl-1,2,4-oxadiazol-5-yl)benzyl)-2,9-diazaspiro[5.5]undecan-1-one], the Kd (as a rule, the concentration at which binding is half-saturated) came to 2020 nM on human orexin 1 receptors [1] and 66 nM on human orexin 2 receptors [2].
On to `Cc1cc(C)nc(N2CCC3(CCCN(Cc4ccccc4-n4nccn4)C3=O)CC2)n1` [Example 2, 2-(2-(2H-1,2,3-triazol-2-yl)benzyl)-9-(4,6-dimethylpyrimidin-2-yl)-2,9-diazaspiro[5.5]undecan-1-one], for which the Ki (usually the dissociation constant of the complex between target and ligand, obtained from inhibition or displacement) at human orexin 2 receptors [3] was found to be 86 nM. In addition, the Kd on human orexin 1 receptors [1] was above 10000 nM; on human orexin 2 receptors [2] it was 259 nM. Further, on human orexin 1 receptors [4], the inhibition (as a rule, the drop in the measured response relative to a control, in per cent) at 10 µM came to 22%.
Take `Cc1cc(C)nc(N2CCC3(CCCC(=O)N3Cc3cccc4[nH]ccc34)CC2)n1` [Example 3, 1-((1H-indol-4-yl)methyl)-9-(4,6-dimethylpyrimidin-2-yl)-1,9-diazaspiro[5.5]undecan-2-one]: the Ki on human orexin 2 receptors [3] turned out to be 0.9 nM; at human orexin 1 receptors [4], 381 nM. The values for the Kd at human orexin 1 receptors [1] and at human orexin 2 receptors [2] were 483 nM and 12 nM, respectively.
The matching figures for `COc1cc(C)nc(N2CCC3(CCCN(Cc4c[nH]c5ccccc45)C3=O)CC2)n1` [Example 4, 2-((1H-indol-3-yl)methyl)-9-(4-methoxy-6-methylpyrimidin-2-yl)-2,9-diazaspiro[5.5]undecan-1-one]: 2.2 nM, 135 nM, 863 nM and 43 nM.
Taken in the same sequence, the figures for `Cc1cc(C)nc(N2CCC3(CCCN(Cc4c[nH]c5ccccc45)C3=O)CC2)n1` [Example 5, 2-((1H-indol-3-yl)methyl)-9-(4,6-dimethylpyrimidin-2-yl)-2,9-diazaspiro[5.5]undecan-1-one] were 10 nM, 870 nM, 966 nM and 35 nM.
Taken in the same sequence, the figures for `Cc1cc(C)nc(N2CCC3(CCCN(Cc4cn(C)c5ccccc45)C3=O)CC2)n1` [Example 6, 9-(4,6-dimethylpyrimidin-2-yl)-2-((1-methyl-1H-indol-3-yl)methyl)-2,9-diazaspiro[5.5]undecan-1-one] were 26 nM, 1530 nM, 4540 nM and 153 nM.
Take `COc1ccnc(N2CCC3(CCCN(Cc4c[nH]c5ccccc45)C3=O)CC2)n1` [Example 13, 2-((1H-indol-3-yl)methyl)-9-(4-methoxypyrimidin-2-yl)-2,9-diazaspiro[5.5]undecan-1-one]: the Kd on human orexin 1 receptors [1] came to 924 nM; at human orexin 2 receptors [2], 74 nM. Moreover, the Ki at human orexin 1 receptors [4] came out at 527 nM.
For `COC(=O)c1ccc2[nH]cc(CN3CCCC4(CCN(c5nc(C)cc(C)n5)CC4)C3=O)c2c1` [Example 115, Methyl 3-((9-(4,6-dimethylpyrimidin-2-yl)-1-oxo-2,9-diazaspiro[5.5]undecan-2-yl)methyl)-1H-indole-5-carboxylate], the equilibrium dissociation constant (Kd) on human orexin 1 receptors [1] was determined as 52 nM; at human orexin 2 receptors [2], 3 nM.
With `COCc1cccc(CN2CCCC3(CCN(c4nc(C)cc(C)n4)CC3)C2=O)c1` [Example 125, 9-(4,6-dimethylpyrimidin-2-yl)-2-(3-(methoxymethyl)benzyl)-2,9-diazaspiro[5.5]undecan-1-one], the Ki at human orexin 2 receptors [3] was 177 nM. Moreover, the inhibition at 10 µM at human orexin 1 receptors [4] came to 22%.
Taken in the same sequence, the figures for `COCc1ccccc1CN1CCCC2(CCN(c3nc(C)cc(C)n3)CC2)C1=O` [Example 126, 9-(4,6-dimethylpyrimidin-2-yl)-2-(2-(methoxymethyl)benzyl)-2,9-diazaspiro[5.5]undecan-1-one] were 140 nM and 31%.
As to `COCc1cccc(CN2CCCC3(CCN(c4nc(C)cc(OC)n4)CC3)C2=O)c1` [Example 127, 9-(4-methoxy-6-methylpyrimidin-2-yl)-2-(3-(methoxymethyl)benzyl)-2,9-diazaspiro[5.5]undecan-1-one], the Ki on human orexin 2 receptors [3] worked out at 100 nM; at human orexin 1 receptors [4], 2110 nM.
